Reference: patent US20250296959A1, “B7-H3 TARGETING PEPTIDES AND CONSTRUCTS THEREOF” (Mariana Oncology Inc., priority 2024, published 2025)
Starred links: 1 amine or outer side, 2 acyl side, 3 side chain; linkers in the order of their positions; H or OH if unused. Positions of bridges follow the written chain, without caps; N, C: chain ends. Non-standard residues stand in square brackets, D forms with d. Residues, ends and D or L forms follow the SMILES beside them. Groups on a side chain read outwards from the residue. *: point of attachment. Ala(1-CH2CO2H-4-piperidyl) = N[C@@H](CC1CCN(CC(=O)O)CC1)C(=O)O; Ala(piperidin-4-yl) = O=C([C@H](CC1CCN([*:3])CC1)N[*:1])[*:2]; DOTA = O=C(O)CN1CCN(CC(=O)O)CCN(CC(=O)*)CCN(CC(=O)O)CC1; Phe(4-NHCONH2) = NC(=O)Nc1ccc(C[C@H](N)C(=O)O)cc1; Trp(5-F) = N[C@@H](Cc1c[nH]c2ccc(F)cc12)C(=O)O; X1 = C[C@@H](c1ccccc1)[C@H](N[*:1])C(=O)[*:2]; Ala(4-THP) = N[C@@H](CC1CCOCC1)C(=O)O; Val(3-OH) = CC(C)(O)[C@H](N)C(=O)O; Aad = N[C@@H](CCCC(=O)O)C(=O)O; PEG4 = NCCOCCOCCOCCOCCC(=O)O; Tle = CC(C)(C)[C@H](N)C(=O)O; hLeu = CC(C)CC[C@H](N)C(=O)O

Assays:
[1] = biological target: T1, human 4lg B7-H3 (Homo sapiens, UniProt Q5ZPR3); experiment: Affinity determination by surface plasmon resonance (SPR) to 4Ig B7-H3; details: read-out: SPR KD—37° C.; 4Ig B7-H3; 37° C. flow cell temperature
T1 sequence (Q5ZPR3 29-534): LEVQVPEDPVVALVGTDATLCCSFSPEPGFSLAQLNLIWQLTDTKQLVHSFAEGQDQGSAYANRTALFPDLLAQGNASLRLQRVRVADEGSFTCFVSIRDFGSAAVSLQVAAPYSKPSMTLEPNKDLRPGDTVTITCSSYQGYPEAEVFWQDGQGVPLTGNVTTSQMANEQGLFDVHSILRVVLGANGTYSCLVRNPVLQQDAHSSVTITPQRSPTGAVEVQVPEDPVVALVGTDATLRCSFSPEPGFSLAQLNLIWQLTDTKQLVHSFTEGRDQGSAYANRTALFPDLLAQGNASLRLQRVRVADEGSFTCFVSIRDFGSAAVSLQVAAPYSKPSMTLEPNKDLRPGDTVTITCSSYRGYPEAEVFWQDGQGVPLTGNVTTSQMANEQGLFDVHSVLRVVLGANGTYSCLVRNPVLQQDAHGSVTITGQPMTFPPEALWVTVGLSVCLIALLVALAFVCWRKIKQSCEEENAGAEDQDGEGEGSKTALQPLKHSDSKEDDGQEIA

[2] = tested on: Calu-6 cell line; experiment: Net internalization of [177Lu]Lu-labeled peptide in Calu-6 cells; format: cell-based, Human; details: 1 hour, 37° C., glycine pH 2.5 acid wash
How it was run: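 Peptide conjugate labeled with [177Lu]LuCl3 at pH ~5, 80 °C, 17–20 min, and purity checked by RP-HPLC. B7-H3-expressing human Calu-6 lung cancer cells at 5 million cells/mL in 1% PBSA. Internalized fraction: counts left after two 3 min 50 mM glycine pH 2.5 washes and NaOH lysis, gamma counted against bound fraction.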

[3] = tested on: Calu-6 cell line; experiment: Cell associated (bound) fraction of [177Lu]Lu-labeled peptide in Calu-6 cells; format: cell-based, Human; details: 1 hour, 37° C.
How it was run: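 Peptide conjugate was labelled with [177Lu]LuCl3 in ammonium acetate pH ~5 at 80 °C for 17-20 min, with purity checked by RP-HPLC. Calu-6 suspensions (5 million cells/mL in 1% PBSA) were incubated with 0.8 μCi for 1 h at 37 °C. Cell pellets were gamma-counted after two cold PBS/BSA washes, giving the bound fraction against the unbound supernatant plus washes.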

Row | SMILES | Kd [1] | % net internalization [2] | % cell associated fraction [3]
1 | CC(=O)N[C@@H](CCC(C)C)C(=O)N[C@@H](Cc1ccc(O)cc1)C(=O)N[C@H]1CSSC[C@@H](C(=O)N[C@@H](Cc2c[nH]c3ccc(F)cc23)C(=O)N[C@@H](Cc2ccccc2)C(=O)N[C@H](C(=O)N[C@H](CCC(=O)O)C(N)=O)C(C)(C)O)NC(=O)[C@H](Cc2ccc(O)cc2)NC(=O)[C@H](C(C)C)NC(=O)[C@H](CC(=O)O)NC(=O)[C@H](CC2CCN(C(=O)CCOCCOCCOCCOCCNC(=O)CN3CCN(CC(=O)O)CCN(CC(=O)O)CCN(CC(=O)O)CC3)CC2)NC(=O)[C@H](CC2CCNCC2)NC(=O)CNC(=O)[C@H](C(C)(C)C)NC1=O [compound 444, Ac-hLeu-Y-C-Tbg-G-PipAla-Pip(PEG4-DOTA)Ala-D-V-Y-C-5FW-F-hydroxyVal-dGlu-CONH2] (Ac-[hLeu]YC[Tle]G[Ala(piperidin-4-yl)][Ala(piperidin-4-yl)]([PEG4-DOTA])DVYC[Trp(5-F)]F[Val(3-OH)][dE]-NH2; disulfide 3-11) | < 1 nM | A (%≤25) | B (25<%≤50)
2 | CC(=O)N[C@@H](CCC(C)C)C(=O)N[C@@H](Cc1ccc(O)cc1)C(=O)N[C@H]1CSSC[C@@H](C(=O)N[C@@H](Cc2c[nH]c3ccc(F)cc23)C(=O)N[C@@H](Cc2ccccc2)C(=O)N[C@H](C(=O)N[C@H](C)C(=O)O)C(C)(C)O)NC(=O)[C@H](Cc2ccc(O)cc2)NC(=O)[C@H](C(C)C)NC(=O)[C@H](CC(=O)O)NC(=O)[C@H](CC2CCN(C(=O)CCOCCOCCOCCOCCNC(=O)CN3CCN(CC(=O)O)CCN(CC(=O)O)CCN(CC(=O)O)CC3)CC2)NC(=O)[C@H](CC2CCNCC2)NC(=O)CNC(=O)[C@H](C(C)(C)C)NC1=O [compound 455, Ac-hLeu-Y-C-Tbg-G-PipAla-Pip(PEG4-DOTA)Ala-D-V-Y-C-5FW-F-hydroxyVal-dAla-COOH] (Ac-[hLeu]YC[Tle]G[Ala(piperidin-4-yl)][Ala(piperidin-4-yl)]([PEG4-DOTA])DVYC[Trp(5-F)]F[Val(3-OH)][dA]-OH; disulfide 3-11) | < 1 nM | B (25<%≤50) | C (%>50)
3 | CC(=O)N[C@@H](CCC(C)C)C(=O)N[C@@H](Cc1ccc(O)cc1)C(=O)N[C@H]1CSSC[C@@H](C(=O)N[C@@H](Cc2c[nH]c3ccc(F)cc23)C(=O)N[C@@H](Cc2ccccc2)C(=O)N[C@H](C(=O)N[C@H](CCCCNC(=O)[C@H](CCCC(=O)O)NC(=O)CN2CCN(CC(=O)O)CCN(CC(=O)O)CCN(CC(=O)O)CC2)C(=O)O)C(C)(C)O)NC(=O)[C@H](Cc2ccc(O)cc2)NC(=O)[C@H](C(C)C)NC(=O)[C@H](CC(=O)O)NC(=O)[C@H](CC2CCOCC2)NC(=O)[C@H](CC2CCNCC2)NC(=O)CNC(=O)[C@H](C(C)(C)C)NC1=O [compound 464, Ac-hLeu-Y-C-Tbg-G-PipAla-ThpA-D-V-Y-C-5FW-F-hydroxyVal-dLys(hGlu-DOTA)-COOH] (Ac-[hLeu]YC[Tle]G[Ala(piperidin-4-yl)][Ala(4-THP)]DVYC[Trp(5-F)]F[Val(3-OH)][dK]([Aad-DOTA])-OH; disulfide 3-11) | < 1 nM | A (%≤25) | C (%>50)
4 | CC(=O)N[C@@H](CCC(C)C)C(=O)N[C@@H](Cc1ccc(O)cc1)C(=O)N[C@H]1CSSC[C@@H](C(=O)N[C@@H](Cc2c[nH]c3ccc(F)cc23)C(=O)N[C@@H](Cc2ccccc2)C(=O)N[C@H](C(=O)N[C@H](CCCCNC(=O)CCOCCOCCOCCOCCNC(=O)CN2CCN(CC(=O)O)CCN(CC(=O)O)CCN(CC(=O)O)CC2)C(=O)O)C(C)(C)O)NC(=O)[C@H](Cc2ccc(O)cc2)NC(=O)[C@H](C(C)C)NC(=O)[C@H](CC(=O)O)NC(=O)[C@H](CC2CCOCC2)NC(=O)[C@H](CC2CCNCC2)NC(=O)CNC(=O)[C@H](C(C)(C)C)NC1=O [compound 465, Ac-hLeu-Y-C-Tbg-G-PipAla-ThpA-D-V-Y-C-5FW-F-hydroxyVal-dLys(PEG4-DOTA)-COOH] (Ac-[hLeu]YC[Tle]G[Ala(piperidin-4-yl)][Ala(4-THP)]DVYC[Trp(5-F)]F[Val(3-OH)][dK]([PEG4-DOTA])-OH; disulfide 3-11) | < 1 nM | A (%≤25) | B (25<%≤50)
5 | CC(=O)N[C@@H](CCC(C)C)C(=O)N[C@@H](Cc1ccc(O)cc1)C(=O)N[C@H]1CSSC[C@@H](C(=O)N[C@@H](Cc2c[nH]c3ccc(F)cc23)C(=O)N[C@H](C(=O)N[C@H](C(=O)N[C@H](CCC(=O)O)C(N)=O)C(C)(C)O)[C@@H](C)c2ccccc2)NC(=O)[C@H](Cc2ccc(O)cc2)NC(=O)[C@H](C(C)C)NC(=O)[C@H](CC(=O)O)NC(=O)[C@H](CC2CCN(C(=O)CCOCCOCCOCCOCCNC(=O)CN3CCN(CC(=O)O)CCN(CC(=O)O)CCN(CC(=O)O)CC3)CC2)NC(=O)[C@H](CC2CCNCC2)NC(=O)CNC(=O)[C@H](C(C)(C)C)NC1=O [compound 495, Ac-hLeu-Y-C-Tbg-G-PipAla-Pip(PEG4-DOTA)Ala-D-V-Y-C-5FW-[(2S, 3S)beta-Me-Phe]-hydroxyVal-dGlu-CONH2] (Ac-[hLeu]YC[Tle]G[Ala(piperidin-4-yl)][Ala(piperidin-4-yl)]([PEG4-DOTA])DVYC[Trp(5-F)][X1][Val(3-OH)][dE]-NH2; disulfide 3-11) | < 1 nM | A (%≤25) | C (%>50)
6 | CC(=O)N[C@@H](CCC(C)C)C(=O)N[C@@H](Cc1ccc(O)cc1)C(=O)N[C@H]1CSSC[C@@H](C(=O)N[C@@H](Cc2c[nH]c3ccc(F)cc23)C(=O)N[C@H](C(=O)N[C@H](C(=O)N[C@H](CCCCNC(=O)CN2CCN(CC(=O)O)CCN(CC(=O)O)CCN(CC(=O)O)CC2)C(=O)O)C(C)(C)O)[C@@H](C)c2ccccc2)NC(=O)[C@H](Cc2ccc(O)cc2)NC(=O)[C@H](C(C)C)NC(=O)[C@H](CC(=O)O)NC(=O)[C@H](CC2CCOCC2)NC(=O)[C@H](CC2CCN(CC(=O)O)CC2)NC(=O)CNC(=O)[C@H](C(C)(C)C)NC1=O [compound 497, Ac-hLeu-Y-C-Tbg-G-Pip(CH2COOH)Ala-ThpA-D-V-Y-C-5FW-[(2S, 3S)beta-Me-Phe]-hydroxyVal-dLys(DOTA)-COOH] (Ac-[hLeu]YC[Tle]G[Ala(1-CH2CO2H-4-piperidyl)][Ala(4-THP)]DVYC[Trp(5-F)][X1][Val(3-OH)][dK](DOTA)-OH; disulfide 3-11) | < 1 nM | A (%≤25) | C (%>50)
7 | CC(=O)N[C@@H](CCC(C)C)C(=O)N[C@@H](Cc1ccc(O)cc1)C(=O)N[C@H]1CSSC[C@@H](C(=O)N[C@@H](Cc2c[nH]c3ccc(F)cc23)C(=O)N[C@H](C(=O)N[C@H](C(=O)N[C@H](CCCCNC(=O)CN2CCN(CC(=O)O)CCN(CC(=O)O)CCN(CC(=O)O)CC2)C(=O)O)C(C)(C)O)[C@@H](C)c2ccccc2)NC(=O)[C@H](Cc2ccc(NC(N)=O)cc2)NC(=O)[C@H](C(C)C)NC(=O)[C@H](CC(=O)O)NC(=O)[C@H](CC2CCOCC2)NC(=O)[C@H](CC2CCN(CC(=O)O)CC2)NC(=O)CNC(=O)[C@H](C(C)(C)C)NC1=O [compound 499, Ac-hLeu-Y-C-Tbg-G-Pip(CH2COOH)Ala-ThpA-D-V-Aph(Cbm)-C-5FW-[(2S, 3S)beta-Me-Phe]-hydroxyVal-dLys(DOTA)-COOH] (Ac-[hLeu]YC[Tle]G[Ala(1-CH2CO2H-4-piperidyl)][Ala(4-THP)]DV[Phe(4-NHCONH2)]C[Trp(5-F)][X1][Val(3-OH)][dK](DOTA)-OH; disulfide 3-11) | < 1 nM | A (%≤25) | C (%>50)
8 | CC(=O)N[C@@H](CCC(C)C)C(=O)N[C@@H](Cc1ccc(O)cc1)C(=O)N[C@H]1CSSC[C@@H](C(=O)N[C@@H](Cc2c[nH]c3ccc(F)cc23)C(=O)N[C@H](C(=O)N[C@H](C(=O)N[C@H](CCCCNC(=O)[C@@H](CCC(=O)O)NC(=O)CN2CCN(CC(=O)O)CCN(CC(=O)O)CCN(CC(=O)O)CC2)C(=O)O)C(C)(C)O)[C@@H](C)c2ccccc2)NC(=O)[C@H](Cc2ccc(O)cc2)NC(=O)[C@H](C(C)C)NC(=O)[C@H](CC(=O)O)NC(=O)[C@H](CC2CCOCC2)NC(=O)[C@H](CC2CCNCC2)NC(=O)CNC(=O)[C@H](C(C)(C)C)NC1=O [compound 501, Ac-hLeu-Y-C-Tbg-G-PipAla-ThpA-D-V-Y-C-5FW-[(2S, 3S)beta-Me-Phe]-hydroxyVal-dLys(dGlu-DOTA)-COOH] (Ac-[hLeu]YC[Tle]G[Ala(piperidin-4-yl)][Ala(4-THP)]DVYC[Trp(5-F)][X1][Val(3-OH)][dK]([dE-DOTA])-OH; disulfide 3-11) | < 1 nM | B (25<%≤50) | C (%>50)
